Experimental data published in patent publication US7691883B2, “Cinnamoyl compound and use of the same” (Sumitomo Chemical Company, Limited, priority 2003, dated 2010).

Legend:
[1] = Ability of a test compound to regulate transcription of a Type I collagen gene using the expression level of a reporter gene (COL-Luc luciferase) as an index; assay type: cell-based; conditions: final concentration 1 μM; normal human fetal skin fibroblast transfected with COL-Luc; TGF-β, 40 hours; read-out: inhibition percentage (inhibitory effect on the ability of TGF-β to promote transcription of a Type I collagen gene)
Procedure: 1×10^8 cells of a normal human fetal skin fibroblast (Clontech, catalogue No. CC-2509) were cultured at 37° C. overnight under 5% CO2 atmosphere. After the cultured cells were washed with a sodium phosphate buffer (hereinafter, referred to as PBS) twice, 3 ml of PBS was added thereto and the cells were scraped away the wall of a vessel using a cell scraper (Nalgen, catalogue No. 179693). The scraped cells were collected by centrifugation (1,500 rpm, 4° C., 15 min), and these were suspended in 20 ml of PBS and centrifuged again. To the resulting precipitates were added 11 ml of Solution 2 and 4.8 μl of pronase of DNA Extraction Kit (Stratagene, catalogue No. 200600). After shaken at 60° C. for 1 hour, the resulting mixture was allowed to stand in ice for 10 minutes. Then, 4 ml of Solution 3 of the kit was added to the mixture. After mixed, the mixture was allowed to stand in ice for 5 minutes and then centrifuged (3,000 rpm, 4° C., 15 min) to recover a supernatant. To the recovered supernatant was added 2 μl of RNase per 1 ml of the supernatant and the mixture was allowed to stand at 37° C. for 15 minutes. To the mixture was added 2-fold volume of ethanol. After mixed, a white thread-like substance (genomic DNA) appeared and the substance was recovered. The recovered genomic DNA washed with 70% ethanol and then air-dried. The air-dried genomic DNA was dissolved in 500 μl of 10 mM Tris-HCl, 1 mM EDTA (pH 8.0) (hereinafter, referred to as TE).
The resulting genomic DNA solution (the amount equivalent to 1 μg of genomic DNA), each 1 μl (10 pmol/μl) of an oligonucleotide consisting of the nucleotide sequence represented by SEQ ID No:1 and an oligonucleotide consisting of the nucleotide sequence represented by SEQ ID No:2, 29 μL of distilled water, 5 μl of the buffer attached to TaKaRa LA Taq (TAKARA SHUZO, catalogue No. RR002A), 5 μL of a Mg^2+ solution, 5 μL of a dNTP mixture and 0.5 μl of TaKaRa LA Taq (TAKARA SHUZO, catalogue No. RR002A) were mixed. After the resulting mixed solution was incubated at 94° C. for 5 minutes, the mixed solution was subjected to 30 cycles, in which one cycle consists of incubation at 94° C. for 1 minute, at 60° C. for 1 minute and then at 72° C. for 1 minute. The mixed solution was electrophoresed on a 2% agarose gel to recover about 0.5 kb of a DNA. The recovered DNA was treated with phenol/chloroform and then precipitated with ethanol to recover the DNA. The resulting DNA was dissolved in ultrapure water. To this solution were added 2.5 μl of NheI and 2.5 μl of HindIII, and then incubated at 37° C. for 3 hours. Then, the solution was electrophoresed on a 2% agarose gel to recover about 3.5 kb of a DNA. The recovered DNA was precipitated with ethanol to recover again the DNA (hereinafter, referred to as the collagen promoter DNA).
On the other hand, the vector pGL3 (Promega, catalogue No. E1751) having the nucleotide sequence encoding firefly luciferase was digested with NheI and HindIII, and then subjected to agarose gel electrophoresis as described above to recover about 5 kb of a DNA. The recovered DNA was precipitated with ethanol to recover the DNA again. To the recovered DNA were added 44 μl of distilled water, 5 μl of Buffer attached to Alkaline Phosphatase (TAKARA SHUZO, catalogue No. 2120A) and 1 μl of Alkaline Phosphatase (TAKARA SHUZO, catalogue No. 2120A). The mixed solution was incubated at 65° C. for 30 minutes. Then, the mixed solution was treated with phenol/chloroform twice, and precipitated with ethanol to recover the DNA (hereinafter referred to as the Luc vector DNA). Then, after about 20 ng of the collagen promoter DNA and about 20 ng of the Luc vector DNA were mixed, the same amount of a DNA Ligation kit Ver2 enzyme solution was added and this was incubated overnight at 16° C. To the mixed solution was added Escherichia coli 5Hdα (TOYOBO, catalogue No. DNA-903), this was allowed to stand in ice for 30 minutes, and then incubated at 42° C. for 45 seconds. […]

[2] = test system: mRNA of Type I collagen gene in renal glomerulus; experiment: Improvement of chronic renal failure: mRNA of Type I collagen gene in renal glomerulus of anti-Thy-1 antibody rats; assay type: in vivo, rat; design: key to mRNA of collagen gene: Type I collagen amount / GAPDH amount; conditions: for ability to improve chronic renal failure: anti-Thy-1 antibody rats, 15 mg/kg/day orally for 7 days; for mRNA of collagen gene: male Wistar rats given anti-Thy-1 antibody (IgG) i.v., compound orally 15 mg/kg/day for 7 days, Type I collagen amount/GAPDH amount, renal cortex, control group 5.6, normal group 1.7
Procedure: IgG was purified from an ascites-lyophilized powder (CEDARLANE, lot No. 05122) containing an anti-rat CD90 (Thy1.1) monoclonal antibody using MAbTrap kit (Amersham Biosciences, catalogue No. 17-1128-01).
6 ml of a binding buffer was added to 3 ml of ascites to sufficiently recover it, and this was passed through a 0.22 μm filter. The resulting solution was applied to a pre-bufferized column, and the column was then washed with 10 ml of a binding buffer. Thereafter, the column was eluted with 5 ml of an elution buffer. From washing, each 1 ml was fractionated, and the protein concentration of each fraction was measured using bovine serum albumin as a standard. A single peak was confirmed from an elution pattern, and an IgG fraction was dialyzed against a physiological saline overnight at 4° C. The protein concentration of the resulting anti-Thy-1 antibody (IgG) was calculated.
The present compounds represented by the compound numbers (1a), (4a), (9a), (14a), (21a), (33a), (19b) or (21d) (hereinafter, referred to as the present compound (1a), (4a), (9a), (14a), (21a), (33a), (19b) or the present compound (21d), respectively) and a corn oil which is a medium were weighed. These were mixed using a mortar and a pestle to prepare a […]. Using four 7-week old male Wistar rats [Nippon Charles River] per group, 60 μg/ml of the anti-Thy-1 antibody (IgG) or a physiological saline was intravenously injected via a tail vein at 5 ml/kg. Immediately after administration of the anti-Thy-1 antibody (IgG) or a physiological saline, the present compound or a corn oil was repeatedly orally administered for 7 days at 5 ml/kg. A dose of the present compound was 15 mg/kg/day.
On the next day of final administration, a rat reared as described in the above (2) was slaughtered by collection of whole blood, and kidneys were isolated. A whole RNA was separated from the cortex of the isolated kidney using RNeasy Mini Kit (QIAGEN, catalogue No. 74106). To 5 μl (50 ng) of the separated whole RNA were added 1 μl of 20 μM oligo dT and 4 μl of RNase-free distilled water. After the mixture was incubated at 65° C. for 5 minutes, it was immediately ice-cooled. To 10 μl of the solution were added 4 μl of 5× buffer, 2.4 μl of MgCl2, 1 μl of 10 mM dNTP, 1 μl of RNasin, 1 μl of Improm II and 0.6 μl of RNase-free distilled water (all available from Promega), and a reverse transcription reaction was performed under the condition of at 25° C. for 5 minutes, at 42° C. for 1 hour, and at 70° C. for 15 minutes.
Into 5 μl of the reverse transcription reaction solution were mixed each 2 μl of each 1.25 pmol/μl of primers represented by SEQ ID NOS: 3 and 4, 1.25 μl of a probe (FAM-ctcgccttca tgcgcctgct agc-TAMRA) for detecting DNA of a Type I collagen gene represented by SEQ ID No:5, each 0.25 μl of Rodent GAPDH primers, 0.25 μl of a Rodent GAPDH probe, 12.5 μl of TaqMan Universal PCR Master Mix (all available from Applied Biosystem) and 1.5 μl of sterilized water in a well of Optical 96-Well Reaction Plate (Applied Biosystem, catalogue No. N801-0560). As a standard, in place of 5 μl of the reverse transcription reaction solution, each 5 μl of 500, 250, 125, 62.5, 31.25, 15.625 ng/μl rat renal cortex cDNA which had been prepared in advance was used. Thereafter, using Gene Amp 7900 (Applied Biosystem), PCR was performed under the condition of at 50° C. for 5 minutes, and 40 cycles in which one cycle is at 95° C. for 15 seconds and at 60° C. for 1 minute. For quantization, a standard straight line was made, the Type I collagen and GAPDH amounts of each sample were calculated, and the transcription amount was calculated according to the following equation: Type I collagen transcription amount=Type I collagen amount/GAPDH amount
For statistical treatment of the resulting result, F-test of a variance ratio was performed between two groups of the anti-Thy-1 antibody and corn oil-administered groups and other each group. […]

Compound	inhibition at 1 µM [1]	ability to improve chronic renal failure [2]	mRNA of collagen gene [2]
COCC(=O)Nc1cccc(C=CC(=O)c2c(O)c3ccccc3oc2=O)c1 [(21d), 4-hydroxy-3-[3-[3-(methoxyacetylamino)phenyl]-1-oxo-2-propenyl]-2H-1-benzopyran-2-one]	≥ 70%	have the ability to improve chronic renal failure	2.2
Cc1cc(O)c(C(=O)C=Cc2cccc(C=CC#N)c2)c(=O)o1 [(1a), 4-hydroxy-3-[3-[3-(2-cyanoethenyl)phenyl]-1-oxo-2-propenyl]-6-methyl-2H-pyran-2-one]	≥ 70%	have the ability to improve chronic renal failure	1.9
C=CCOc1cccc(C=CC(=O)c2c(O)cc(C)oc2=O)c1 [(4a), 4-hydroxy-3-[3-(3-allyloxyphenyl)-1-oxo-2-propenyl]-6-methyl-2H-pyran-2-one]	≥ 70%	have the ability to improve chronic renal failure	3.2
COC(=O)CNC(=O)c1cccc(C=CC(=O)c2c(N3CCOCC3)cc(C)oc2=O)c1 [(19b), 4-morpholino-3-[3-[3-[[(methoxycarbonylmethyl)amino]carbonyl]phenyl]-1-oxo-2-propenyl]-6-methyl-2H-pyran-2-one]	≥ 70%	have the ability to improve chronic renal failure	2.9
Cc1cc(O)c(C(=O)C=Cc2cccc(OCC#N)c2)c(=O)o1 [(14a), 4-hydroxy-3-[3-[3-(cyanomethoxy)phenyl]-1-oxo-2-propenyl]-6-methyl-2H-pyran-2-one]	≥ 70%	have the ability to improve chronic renal failure	2.2
COCC(=O)Nc1cccc(C=CC(=O)c2c(O)cc(C)oc2=O)c1 [(21a), 4-hydroxy-3-[3-[3-(methoxyacetylamino)phenyl]-1-oxo-2-propenyl]-6-methyl-2H-pyran-2-one]	≥ 70%	have the ability to improve chronic renal failure	1.7
COC(=O)CNC(=O)c1cccc(C=CC(=O)c2c(O)cc(C)oc2=O)c1 [(33a), 4-hydroxy-3-[3-[3-[[(methoxycarbonylmethyl)amino]carbonyl]phenyl]-1-oxo-2-propenyl]-6-methyl-2H-pyran-2-one]	≥ 70%	have the ability to improve chronic renal failure	3.3
C#CCOc1ccc(C=CC(=O)c2c(O)cc(C)oc2=O)cc1 [(9a), 4-hydroxy-3-[3-(4-propargyloxyphenyl)-1-oxo-2-propenyl]-6-methyl-2H-pyran-2-one]		have the ability to improve chronic renal failure	3.4
